Measurements reported in patent US20240197738A1, “COMPOUND 7AI IN TREATING EWING SARCOMA BY INHIBITING OTUD7A” (The University of North Carolina at Chapel Hill, priority 2021, published 2024).

What was measured:
[1] = test system: EWS-FLI1; assay: Immunoblot of EWS-FLI1 protein abundance in cells; assay type: cell-based, human
[2] = biological target: T1, OTUD7A (Homo sapiens, UniProt Q8TE49); assay: Immunoblot of OTUD7A protein levels in Ewing cells; assay type: cell-based; details: A673 and SK-N-MC cells, 10 μM, 12 hrs
T1 construct: endogenous in cells; host or cells: A673 and SK-N-MC
T1 sequence (Q8TE49 whole entry): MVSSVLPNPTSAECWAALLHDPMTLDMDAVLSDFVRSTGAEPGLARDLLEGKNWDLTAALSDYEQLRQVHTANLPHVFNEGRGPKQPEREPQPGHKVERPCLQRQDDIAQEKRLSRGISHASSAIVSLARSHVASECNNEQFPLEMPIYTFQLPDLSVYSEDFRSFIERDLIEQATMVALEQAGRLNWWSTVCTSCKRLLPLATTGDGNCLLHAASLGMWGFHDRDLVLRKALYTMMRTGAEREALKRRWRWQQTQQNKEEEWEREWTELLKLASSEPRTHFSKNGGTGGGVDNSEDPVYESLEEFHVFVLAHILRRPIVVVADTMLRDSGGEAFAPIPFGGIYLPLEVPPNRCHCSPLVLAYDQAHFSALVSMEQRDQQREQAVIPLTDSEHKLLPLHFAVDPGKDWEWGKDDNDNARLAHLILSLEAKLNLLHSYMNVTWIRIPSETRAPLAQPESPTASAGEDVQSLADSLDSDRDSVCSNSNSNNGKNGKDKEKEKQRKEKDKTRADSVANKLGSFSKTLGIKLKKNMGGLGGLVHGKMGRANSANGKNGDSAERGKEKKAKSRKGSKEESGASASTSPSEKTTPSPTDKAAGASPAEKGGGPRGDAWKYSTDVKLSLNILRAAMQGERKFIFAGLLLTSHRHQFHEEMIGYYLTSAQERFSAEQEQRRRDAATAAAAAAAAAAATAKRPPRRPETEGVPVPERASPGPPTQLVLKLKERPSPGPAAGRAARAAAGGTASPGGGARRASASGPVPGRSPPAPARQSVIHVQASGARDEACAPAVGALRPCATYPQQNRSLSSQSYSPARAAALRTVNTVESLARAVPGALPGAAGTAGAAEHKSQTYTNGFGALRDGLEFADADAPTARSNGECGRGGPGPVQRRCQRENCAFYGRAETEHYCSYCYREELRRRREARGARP
Procedure: (§1) Cells were lysed in EBC buffer (50 mM Tris pH 7.5, 120 mM NaCl, 0.5% NP-40) or Triton X-100 buffer (50 mM Tris pH 7.5, 150 mM NaCl, 1% Triton X-100) supplemented with protease inhibitors (Complete Mini, Roche) and phosphatase inhibitors (phosphatase inhibitor cocktail set I and II, Calbiochem). The protein concentrations of whole cell lysates were measured by NanoDrop OneC using the Bio-Rad protein assay reagent as described previously. Equal amounts of whole cell lysates were resolved by SDS-PAGE and immunoblotted with indicated antibodies. For immunoprecipitations analysis, unless specified, 1000 μg lysates were incubated with the indicated antibody (1-2 μg) for 3-4 hr at 4° C. followed by 1 hr incubation with 10 μL Protein A magnetic beads (New England Biolabs). Or 1000 μg lysates containing tagged molecules were incubated with agarose beads coupled antibodies for the specific tag for 3-4 hr at 4° C. For endogenous IPs, incubation of cell lysates with antibodies was extended to overnight. The recovered immuno-complexes were washed five times with NETN buffer (20 mM Tris, pH 8.0, 100 mM NaCl, 1 mM EDTA and 0.5% NP-40) before being resolved by SDS-PAGE and immunoblotted with indicated antibodies.
Each compound was dissolved in DMSO with a concentration of 10 mM. […]

[3] = biological target: OTUD7A binding to EWS-FLI1 (Homo sapiens, UniProt Q8TE49); assay: OTUD7A binding to EWS-FLI1 in cells; assay type: cell-based
OTUD7A binding to EWS-FLI1, sequence (Q8TE49 whole entry): as above
Procedure: as §1

[4] = test system: A673 cells; assay: Cell viability (MTT) assay, A673; assay type: cell-based, human; details: A673, 3-day treatment
Procedure: (§2) 2,000 indicated cells were seeded in each well of 96-well plates for MTT assays to monitor cell viability at indicated time periods using a method adapted from https://www.thermofisher.com/us/en/home/references/protocols/cell-culture/mtt-assay-protocol/vybrant-mtt-cell-proliferation-assay-kit.html. Briefly, at indicated time points post-cell seeding, 10 μL MTT solution was added into each well and incubated in the culture incubator (37° C. with 5% CO2) for 4 hrs. Then medium was removed and 100 μL DMSO was added into each well to dissolve the formazan crystal and incubated for 10 min at 37° C. After thorough mixing, absorbance at 540 nm was measured using the BioTek Cytation 5 Cell Imaging reader.

[5] = test system: MHH-ES-1 cells; assay: Cell viability (MTT) assay, MHH-ES-1; assay type: cell-based, human; details: MHH-ES-1, 3-day treatment
Procedure: as §2

[6] = test system: A673 cells expressing EWS-FLI1-3A; assay: Growth of A673 cells expressing EWS-FLI1-3A; assay type: cell-based, human
Procedure: as §2

[7] = test system: HUVEC cells; assay: Cell viability (MTT) assay, HUVEC; assay type: cell-based, human; details: 72 hrs (FIG. 5S)
Procedure: as §2

[8] = test system: A673 cells; assay: Transwell migration assay, A673; assay type: cell-based, human; details: A673 cells in vitro
Procedure: 1×10^5 cells were plated in an […], 24-well plate chamber insert (Corning Life Sciences, catalog no. 3422) with serum free DMEM medium at the top of the insert and the same medium containing 20% fetal bovine serum (FBS) at the bottom of the insert. Cells were incubated for 24 hr and fixed with 4% paraformaldehyde for 15 min. After washing with PBS, cells at the top of the insert were scraped with a cotton swab. Cells adherent to the bottom were stained with 0.5% crystal violet blue for 60 min and then washed with double-distilled H2O (ddH2O). The positively stained cells were examined under the microscope.

[9] = test system: MHH-ES-1 cells; assay: 2D colony formation assay, MHH-ES-1; assay type: cell-based, human; details: MHH-ES-1, 2-week treatment (FIG. 5J)
Procedure: (§3) Indicated cells were seeded into 6-well plates (300 or 600 cells/well) or 6 cm dishes (500 or 1,000 cells/dish) and cultured in 37° C. incubator with 5% C02 for ˜14 days (as indicated in figure legends) until formation of visible colonies. Colonies were washed with 1×PBS and fixed with 10% acetic acid/10% methanol for 30 min, stained with 20% acidic acid/10% Methanol with 0.1% crystal violet until colonies were visibly stained. Colonies were then washed by tap water and air-dried. Colony numbers were manually counted. At least two independent experiments were performed to generate the error bars.

[10] = test system: A673 cells; assay: 2D colony formation assay, A673; assay type: cell-based, human; details: A673, 2-week treatment
Procedure: as §3

[11] = test system: A673^3A cells; assay: Cell viability (MTT) assay, A673^3A knockin; assay type: cell-based, human; details: 3-day treatment (FIG. 5I)
Procedure: Parental A673 cells were splitted into 24-well plates and transfected with sgRNA against EWS-FLI1 together with EWS-FLI1-3A-ssoDNA following protocols as described. 1-day post-transfection, cells were selected with 1 μg/ml puromycin for 3 days. Surviving cells were counted and each single cell was seeded into 96-well plates. Each single clone grown up in 96-well plates was amplified and one copy was used for genomic DNA extraction, followed by PCR and BpmI digestion to screen for potential knockin clones. BpmI negative clones are selected and sequenced to verify the knockin at the DNA level. 3 isogenic knockin clones were selected and saved.
as §2

With `Cn1nccc1-c1cc(-c2ccnn2C)n2nc(C(=O)Nc3cnn(Cc4c(Cl)cccc4Cl)c3)cc2n1` [7Ai] the EWS-FLI1 protein abundance ([1]; A673-teton-shOTUD7A cells) was “reduced EWS-FLI1 protein abundance in A673-teton-shOTUD7A”, the EWS-FLI1 protein abundance ([1]; A673 and MHH-ES-1 cells, doses of 7Ai for 3 days) was “efficiently reduced EWS-FLI1 protein abundance in both Ewing sarcoma cells” and the EWS-FLI1 protein levels ([1]; A673 and SK-N-MC cells, 10 μM, 12 hrs) was “reduced EWS-FLI1 protein levels in both Ewing cells”. The “EWS-FLI1 protein levels, dose dependence” value ([1]; A673 cells, indicated doses, 12 hrs (FIG. 5B)) was “reduced EWS-FLI1 protein levels in a dose-dependent manner”, the EWS-FLI1 protein expression ([1]; MHH-ES-1, EWS894 (FIG. 5E, 12 hrs), SK-N-MC and EWS502 cells) was “efficiently reduced EWS-FLI1 protein expression” and the EWS-FLI1 protein abundance ([1]; parental A673 cells, 10 μM, 12 hrs (FIG. 5D)) was “reduced EWS-FLI1 protein abundance in parental A673”. The OTUD7A protein levels [2] was “without affecting OTUD7A protein levels”, the “OTUD7A binding to EWS-FLI1” value [3] was “did not interfere with OTUD7A binding to EWS-FLI1” and the “proliferation (cell viability)” value [4] was “reduced proliferation”. For the same compound, the “proliferation (cell viability)” value [5] was “reduced MHH-ES-1 proliferation”, the cell growth [6] was “failed to significantly suppress growth” and the “proliferation (cell viability)” value [7] was “neglectable effects”. For the same compound, the cell migratory ability [8] was “significantly reduced A673 cell migratory ability”, the colony formation ability [9] was “reduced colony formation ability” and the colony formation ability [10] was “reduced colony formation ability”. The “proliferation (cell viability)” value [11] was “not observed”.
